Experimental data reported in publication PMC5185470 (Bioorganic & medicinal chemistry letters, 2016).
pIC50: −log10 of the molar value.

Experiments:
BuChE = BuChE (Homo sapiens, UniProt P06276); test: biochemical
AChE = AChE (Homo sapiens, UniProt P22303); test: biochemical; type: biochemical; conditions: for increase of AChE inhibition relative to the unsubstituted nitropyridazine: vs JWS
M2 receptor = molecular target: T1, M2 receptor (Homo sapiens, UniProt P08172); conditions: read-out: M2 receptors IC50; previous studies; cited from earlier work
T1 sequence (P08172 1-466): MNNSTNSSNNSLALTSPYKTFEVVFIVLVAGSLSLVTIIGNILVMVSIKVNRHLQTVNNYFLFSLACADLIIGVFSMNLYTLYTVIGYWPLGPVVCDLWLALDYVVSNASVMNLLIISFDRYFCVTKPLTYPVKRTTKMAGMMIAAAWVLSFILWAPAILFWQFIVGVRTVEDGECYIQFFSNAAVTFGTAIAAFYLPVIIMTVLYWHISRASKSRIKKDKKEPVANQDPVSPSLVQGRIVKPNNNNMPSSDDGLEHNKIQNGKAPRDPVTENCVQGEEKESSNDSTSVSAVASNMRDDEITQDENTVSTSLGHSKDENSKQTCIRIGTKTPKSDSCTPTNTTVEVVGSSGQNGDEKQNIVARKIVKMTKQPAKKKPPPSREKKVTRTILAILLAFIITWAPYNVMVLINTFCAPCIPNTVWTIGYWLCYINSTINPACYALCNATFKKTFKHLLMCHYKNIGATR

[1] = Chemical decomposition on storage; type: physicochemical; conditions: estimated, after 6 months; nitro replaced by hydroxyl

Chain of BuChE (P06276 29-602): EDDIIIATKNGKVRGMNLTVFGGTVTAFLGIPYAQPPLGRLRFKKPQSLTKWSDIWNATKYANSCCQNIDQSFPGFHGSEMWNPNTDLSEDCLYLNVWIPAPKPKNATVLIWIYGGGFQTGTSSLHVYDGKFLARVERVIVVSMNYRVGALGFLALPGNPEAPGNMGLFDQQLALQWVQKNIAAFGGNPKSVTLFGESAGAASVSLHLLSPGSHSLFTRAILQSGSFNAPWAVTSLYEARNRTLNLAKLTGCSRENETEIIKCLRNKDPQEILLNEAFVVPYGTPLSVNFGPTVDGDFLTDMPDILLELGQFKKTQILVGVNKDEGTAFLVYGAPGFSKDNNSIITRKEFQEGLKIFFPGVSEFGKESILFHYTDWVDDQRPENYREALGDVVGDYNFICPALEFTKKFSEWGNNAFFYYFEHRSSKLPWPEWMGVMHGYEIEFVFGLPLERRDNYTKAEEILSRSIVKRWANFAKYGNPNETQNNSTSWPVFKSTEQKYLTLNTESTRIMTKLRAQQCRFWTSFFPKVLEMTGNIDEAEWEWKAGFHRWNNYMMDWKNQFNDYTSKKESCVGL
Chain of AChE (P22303 32-614): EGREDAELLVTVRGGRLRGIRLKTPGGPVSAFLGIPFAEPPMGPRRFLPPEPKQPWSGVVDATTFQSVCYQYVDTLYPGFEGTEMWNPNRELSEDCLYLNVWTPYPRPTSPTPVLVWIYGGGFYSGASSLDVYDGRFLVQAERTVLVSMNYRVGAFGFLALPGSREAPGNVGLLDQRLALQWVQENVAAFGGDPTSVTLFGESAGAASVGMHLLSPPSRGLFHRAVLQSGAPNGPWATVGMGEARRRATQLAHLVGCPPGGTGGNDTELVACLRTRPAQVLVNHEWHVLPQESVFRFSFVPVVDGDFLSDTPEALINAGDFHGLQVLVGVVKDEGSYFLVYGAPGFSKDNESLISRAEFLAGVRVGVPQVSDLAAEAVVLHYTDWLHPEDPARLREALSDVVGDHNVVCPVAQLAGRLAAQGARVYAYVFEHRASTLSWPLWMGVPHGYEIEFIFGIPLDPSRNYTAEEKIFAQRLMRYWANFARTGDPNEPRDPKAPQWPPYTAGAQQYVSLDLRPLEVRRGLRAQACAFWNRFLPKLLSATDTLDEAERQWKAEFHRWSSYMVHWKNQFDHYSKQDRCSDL

Row | Compound | pIC50 (BuChE) | pIC50 (AChE) | other results
1 | CN(C)Cc1ccc(CSCCN2C(=O)CCC2=O)o1 [Compound 27] | < 4.30 |  | 
2 | CN(C)Cc1ccc(CSCCN2C(=O)c3cccc4cc([N+](=O)[O-])cc(c34)C2=O)o1 [Compound 33] |  |  | fold less active than donepezil (AChE) (AChE; vs donepezil IC50 = 0.050 µM): 3 fold
3 | Cc1ccc(S(=O)(=O)NCCSCc2ccc(CN(C)C)o2)cc1 [Compound 23] |  | < 4.30 | 
4 | CN(C)Cc1ccc(CSCCNc2nc(N)n[nH]2)o1 [Compound 18] | < 4.30 | < 4.30 | 
5 | CC1CC(=O)N(CCSCc2ccc(CN(C)C)o2)C1=O (centres unmarked) [Compound 28] | < 4.30 |  | 
6 | CN(C)Cc1ccc(CSCCNc2nc(N)no2)o1 [Compound 17] | < 4.30 | < 4.30 | 
7 | CN(C)Cc1ccc(CSCCNc2nnccc2[N+](=O)[O-])o1 [JWS, N-(2-(((5-((dimethylamino)methyl)furan-2-yl)methyl)thio)ethyl)-4-nitropyridazin-3-amine] |  |  | pIC50 (M2 receptor): 7.22; chemical decomposition [1]: about 10%
8 | CS/C(=N\S(=O)(=O)c1ccc(C)cc1)NCCSCc1ccc(CN(C)C)o1 [Compound 22] | < 4.30 | < 4.30 | 
9 | CN(C)Cc1ccc(CSCCNc2ccc(Cl)nn2)o1 [Compound 16] | < 4.30 |  | 
10 | Cc1c(-c2ccccc2)nnc(NCCSCc2ccc(CN(C)C)o2)c1[N+](=O)[O-] [Compound 10] |  |  | increase of AChE inhibition relative to the unsubstituted nitropyridazine (AChE): ~3 fold
11 | CN(C)Cc1ccc(CSCCN2C(=O)c3ccc([N+](=O)[O-])cc3C2=O)o1 [Compound 31] | < 4.30 |  | 
12 | CN(C)Cc1ccc(CSCCNc2nnc(-c3ccccc3)c(-c3ccccc3)c2[N+](=O)[O-])o1 [Compound 12] |  |  | increase of AChE inhibition relative to the unsubstituted nitropyridazine (AChE): ~3 fold
13 | CN(C)Cc1ccc(CSCCNC(=O)c2ccccc2-c2ccccc2C(=O)O)o1 [Compound 24] | < 4.30 | < 4.30 | 
14 | Cc1cccc(Nc2ccccc2C(=O)NCCSCc2ccc(CN(C)C)o2)c1C [Compound 25] | < 4.30 | < 4.30 | 
